Where two headings read alike, the source gives them in different places. Marks after values point to notes of the source that are not given here.
How the values were obtained:
rhlA = test: RT-qPCR analysis of rhlA expression in biofilm cells; format: cell-based, Pseudomonas aeruginosa; settings: 10 μM, FIG. 9B
Protocol: P. aeruginosa (OD 595 nm=1.0) overnight cultured with a positive control or compound (0-10 μM) was diluted (1:20) in an AB medium in a borosilicate bottle. Afterward, after culture for 24 hours at 37° C., biofilm cells were collected for RNA extraction. Total RNA was extracted using a TRI reagent (Molecular Research Center, OH, USA) according to the manufacturer's instruction. To quantify and compare QS-related gene expression levels, RT-qPCR was performed. For RT-qPCR, a SYBR Premix Ex Taq™ (Takara, Shiga, Japan), a CFX-96 real-time system (Bio-Rad, Hercules, Calif. USA), and a QS-related gene primer set were used. The thermal profile of the RT-qPCR is as follows: 40 cycles of initial denaturation for 10 seconds at 95° C., denaturation for 10 seconds at 95° C., annealing for 10 seconds at 60° C., and extension for 34 seconds at 63° C. A fluorescent signal intensity was collected at the end of the elongation step.

Pseudomonas aeruginosa [1] = test: Dynamic biofilm formation assay (drip-flow reactor, CLSM); format: cell-based; settings: 48 hours, 10 μM, smaller volume and thickness than control
Protocol: Glass slides were placed in a drip-flow reactor, and an AB medium containing 5% P. aeruginosa (OD 595 nm=1.0) was added along with a positive control or compound (0 to 10 μM) and the reactor was continuously operated using peristaltic pumps (Masterflex C/L tubing pumps, Cole-Parmer, Ill., USA) at 0.3 ml/min. After the above-described process was carried out at 37° C. for 48 hours, unattached biofilm cells were removed with PBS. The remaining biofilm cells were stained with DAPI (Sigma-Aldrich) for 10 minutes, and observed by confocal laser scanning microscopy (CLSM; Carl Zeiss LSM700, Jena, Germany). The CLSM image of the biofilm cells was obtained with a 20× objective lens (W NAchroplanX20/0.5W (DIC) M27) under blue fluorescence light (excitation wavelength: 350 nm, emission wavelength: 470 nm) using a Z-stack mode of the Zen 2011 program. The volume and thickness of the biofilm were measured using Comstat2 of the ImageJ program based on a CLSM image.

Pseudomonas aeruginosa [2] = test: Bacterial growth under static condition (OD 595 nm of suspended culture); format: cell-based; settings: for activity at 10 µM / activity at 100 µM: Pseudomonas aeruginosa, 24 h; for activity at 10 µM: read-out: Relative biological activity (%) Bacterial growth 10; for activity at 100 µM: read-out: Relative biological activity (%) Bacterial growth 100
Protocol: (§1) Pseudomonas aeruginosa (P. aeruginosa) (OD 595 nm=1.0) was cultured overnight, and diluted in an AB medium (1:20; 300 mM NaCl, 50 mM MgSO4, 0.2% vitamin-free casamino acids, 10 mM potassium phosphate, 1 mM L-arginine, and 1% glucose, pH 7.5) together with a positive control or compound (0100 μM) in a borosilicate bottle. The resulting mixture was incubated without shaking at 37° C. for 24 hours, and to measure growth inhibition activity. OD 595 nm of the suspended culture was measured using a multimode plate reader. Biofilm cells attached to the bottle were washed twice with phosphate-buffered saline (PBS; 137 mM NaCl, 2.7 mM KCl, 10 mM Na2HPO4, and 2 mM KH2PO4, pH 7.2). Afterward, the remaining biofilm cells were stained with 0.1% crystal violet for 10 minutes, and to remove the unbound crystal violet, washed with deionized water. The crystal violet […] to the biofilm cells was eluted with 100% ethanol, and the OD of the eluted ethanol sample was measured at 545 nm using a multimode plate reader.

LasR = target: T1, LasR (Pseudomonas aeruginosa, UniProt P25084); settings: previous studies; cited from earlier work
T1 construct: expressed in transfected cells; host or cells: E. coli DH5a co-transformed with pJN105L and pSC11 (lasI::lacZ)

RhlR = target: T2, RhlR (Pseudomonas aeruginosa, UniProt P54292); test: cell-based; settings: for Relative RhlR activity Antagonism: Table 2; for activity at 100 µM: read-out: Relative RhlR activity Agonism, Table 2, matches the 100 column of Table 3
T2 construct: expressed in transfected cells; host or cells: E. coli sdiA variant co-transformed with pJN105R and pSC11 (RhlA::lacZ)

P. aeruginosa = test: Rhamnolipid production assay; format: cell-based, Pseudomonas aeruginosa; settings: for Relative biological activity (%) Rhamnolipid production: Table 4, concentration not given
Protocol: P. aeruginosa (OD 595 nm=1.0) cultured overnight was inoculated in an AB medium (1:100) with a positive control or compound (0100 μM), and incubated using a shaking culture for 24 hours at 37° C. The cell culture was centrifuged for 5 minutes at 4° C. and 12,000 g. Rhamnolipids were extracted twice by mixing 200 μL of a supernatant and 400 μL of 100% diethyl ether (JUNSEI, Tokyo, Japan). The supernatant was transferred to a new tube and evaporated. A dried sample was eluted with 20 μL of deionized water, and reacted with 180 μL of an Orcinal solution (0.19% Orcinal (Sigma-Aldrich) in 53% H2SO4). The reaction mixture was heated for 30 minutes at 80° C., and cooled for 15 minutes at room temperature. The amount of rhamnolipids was measured at OD 421 nm, and normalized in the cell culture solution at OD 595 nm using a multimode plate reader.

Pseudomonas aeruginosa [3] = test: Static biofilm formation assay (crystal violet); format: cell-based; settings: for Relative biological activity (%) Biofilm formation: Table 4, concentration not given
Protocol: as §1

[4] = footnotes not given, 100 μM per Table 3, lower = stronger antagonism
[5] = Table 4, concentration not given
[6] = read-out: Relative RhlR activity Antagonism, Table 2, footnotes not given, 100 μM per Table 3, lower = stronger antagonism

T2 sequence (P54292 whole entry): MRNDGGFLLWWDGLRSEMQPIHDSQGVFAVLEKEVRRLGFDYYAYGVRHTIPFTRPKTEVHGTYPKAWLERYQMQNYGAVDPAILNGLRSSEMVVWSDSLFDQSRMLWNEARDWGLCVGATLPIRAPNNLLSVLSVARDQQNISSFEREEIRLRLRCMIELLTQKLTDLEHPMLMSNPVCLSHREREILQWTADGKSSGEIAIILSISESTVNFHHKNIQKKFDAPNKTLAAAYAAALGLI
T1 sequence (P25084 whole entry): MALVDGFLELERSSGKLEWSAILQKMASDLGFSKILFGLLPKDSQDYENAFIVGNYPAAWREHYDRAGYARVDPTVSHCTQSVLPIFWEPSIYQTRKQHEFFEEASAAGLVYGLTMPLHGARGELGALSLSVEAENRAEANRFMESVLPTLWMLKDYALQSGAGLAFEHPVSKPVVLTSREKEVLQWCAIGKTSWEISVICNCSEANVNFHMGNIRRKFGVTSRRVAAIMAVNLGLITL

## CCCCC[C@H](O)CC(=O)CCc1ccc(O)c(OC)c1 [Compound 1c, (S)-6-gingerol, reference compound]
rhlA
  downregulation of rhlA expression of biofilm cells: 38%
Pseudomonas aeruginosa [1]
  biofilm appearance under flow condition vs control: thinner and more dispersed biofilm
Pseudomonas aeruginosa [2]
  activity at 10 µM: 96%
  activity at 100 µM: 101%
LasR
  LasR antagonistic activity (reported previously): LasR antagonistic activity

## CCCC(=O)NC1CCCC1 [Compound 1d, N-cyclopentylbutyramide, reference compound]
RhlR; [4]
  Relative RhlR activity Antagonism: 54** %
RhlR; Table 3, 100 (μM)
  Relative RhIR Activity (%) Agonism 100: 4** %
RhlR; Table 3, 1000 (μM)
  Relative RhIR Activity (%) Agonism 1000: 37%
RhlR; [5]
  Relative RhIR activity (%) Agonism: 4** %
RhlR; dose-response, FIG. 6A, different concentrations (0 to 100 μM)
  IC50: 86 µM
RhlR; read-out: Relative RhIR Activity (%) Antagonism 10, Table 3, 10 (μM)
  remaining activity at 10 µM: 74%
RhlR; read-out: Relative RhIR Activity (%) Antagonism 100, Table 3, 100 (μM)
  remaining activity at 100 µM: 54%
RhlR; footnotes not given
  activity at 100 µM: 4%
RhlR; [6]
  remaining activity at 100 µM: 54%
P. aeruginosa; Pseudomonas aeruginosa, 24 h, read-out: Relative biological activity (%) Rhamnolipid production 10
  activity at 10 µM: 58%
P. aeruginosa; Pseudomonas aeruginosa, 24 h, read-out: Relative biological activity (%) Rhamnolipid production 100
  activity at 100 µM: 45%
P. aeruginosa
  Relative biological activity (%) Rhamnolipid production: 68* %
Pseudomonas aeruginosa [1]
  biofilm appearance under flow condition vs control: thinner and more dispersed biofilm
Pseudomonas aeruginosa [2]; Table 3, 10 (μM)
  activity at 10 µM: 95%
Pseudomonas aeruginosa [2]; Table 3, 100 (μM)
  activity at 100 µM: 98%
Pseudomonas aeruginosa [3]; Pseudomonas aeruginosa, 24 h, Table 3, static, 10 (μM), read-out: Relative biological activity (%) Biofilm formation 10
  activity at 10 µM: 84%
Pseudomonas aeruginosa [3]; Pseudomonas aeruginosa, 24 h, Table 3, static, 100 (μM), read-out: Relative biological activity (%) Biofilm formation 100
  activity at 100 µM: 69%
Pseudomonas aeruginosa [3]
  Relative biological activity (%) Biofilm formation: 81* %

## CCCCCC(O)C#Cc1ccc(O)c(OC)c1 (racemic) [Compound 23a, 4-(3-Hydroxyoct-1-yn-1-yl)-2-methoxyphenol]
RhlR; [4]
  Relative RhlR activity Antagonism: 32** %
RhlR; [5]
  Relative RhIR activity (%) Agonism: 3** %
  Relative RhIR activity (%) Antagonism: 32** %
RhlR; footnotes not given
  activity at 100 µM: 3%
RhlR; [6]
  remaining activity at 100 µM: 32%
P. aeruginosa
  Relative biological activity (%) Rhamnolipid production: 85%
Pseudomonas aeruginosa [2]; [5]
  Relative biological activity (%) Bacterial growth: 98%
Pseudomonas aeruginosa [3]
  Relative biological activity (%) Biofilm formation: 80* %

Reference: patent US20220289657A1, “COMPOSITION FOR PREVENTING OR TREATING BACTERIAL INFECTIOUS DISEASE COMPRISING 4-GINGEROL DERIVATIVE COMPOUND AS ACTIVE INGREDIENT” (KOREA UNIVERSITY RESEARCH AND BUSINESS FOUNDATION, SEJONG …, priority 2019, published 2022)
